Reference: patent US9790253B2, “OSW-1 analogs and conjugates, and uses thereof” (priority 2011, dated 2017)

What was measured:
[1] = tested on: OSBP1 localization in HCT-116 cells; experiment: OSBP1 localization by immunofluorescence microscopy, HCT-116; type: cell-based, human; details: 4 h treatment
Description: (§1) Immunofluorescence microscopy. HCT-116 or A549 (adenocarcinomic human alveolar basal epithelial) cells were plated on coverslips in 6-well plates. After 72 h, the culture media was removed and replaced with media containing either compound or vehicle control. At the indicated time-points, the cells were fixed for 10 min using 3.7% formaldehyde in PBS. The coverslips were washed with PBS and permeabilized for 5 min with 0.5% Triton X-100 in PBS. Following PBS washing, the coverslips were blocked for 30 min using Image-iT™ FX (Invitrogen), washed with PBS, and then blocked for 30 min at room temperature (RT) with 1% BSA in PBS (BSA/PBS). The coverslips were then incubated overnight at 4° C. with a primary antibody solution in BSA/PBS. The coverslips were washed with BSA/PBS and incubated for 60 min at RT with Alexa Fluor®-conjugated secondary antibodies (Invitrogen) in BSA/PBS, with the final 30 min including incubation with Hoescht 33258. The coverslips were then washed sequentially with BSA/PBS, PBS, and water and finally mounted on microscope slides using Aqua Poly/Mount (Polysciences Inc.). Imaging data was acquired using Zeiss LSM 510 META scanning confocal microscope.
Although the function of OSBP1 is not yet fully elucidated, several cellular activities have been observed. For instance, OSBP1 translocates from cytoplasmic sites to the trans-Golgi network (TGN) upon addition of 25-OHC to cells. HCT-116 cells were treated with ORPphilins for short time periods (4 h) and the effects on OSBP1 localization monitored using immunofluorescence microscopy.
OSBP1 (green) and trans-Golgi protein P230 (red) were visualized in HCT-116 cells using indirect immunofluorescence microscopy. Cells were treated with compound for 4 h, fixed with 3.7% formaldehyde/PBS, washed, and permeabilized using 0.5% Triton X-100 in PBS. Proteins were labelled using specific primary antibodies against OSBP1 and P230 overnight at 4° C. After washing, cells were treated with Alexa Fluor 488 and Alexa Fluor 546 secondary antibodies for 1 h at RT.

[2] = target: T1, OSBP1-myc-his (Homo sapiens, UniProt P22059); experiment: [3H]-25-hydroxycholesterol charcoal-dextran binding assay with OSBP1-myc-his; details: competition with 20 nM [3H]-25-OHC, HEK-293T S100 lysate, 4° C., 16 h; read-out: [^3H]-25-OHC K1 (nM) OSBP1-myc-his
T1 construct: made in house; host or cells: HEK-293T (transient transfection; S100 lysate, not purified)
T1 sequence (P22059 1-807): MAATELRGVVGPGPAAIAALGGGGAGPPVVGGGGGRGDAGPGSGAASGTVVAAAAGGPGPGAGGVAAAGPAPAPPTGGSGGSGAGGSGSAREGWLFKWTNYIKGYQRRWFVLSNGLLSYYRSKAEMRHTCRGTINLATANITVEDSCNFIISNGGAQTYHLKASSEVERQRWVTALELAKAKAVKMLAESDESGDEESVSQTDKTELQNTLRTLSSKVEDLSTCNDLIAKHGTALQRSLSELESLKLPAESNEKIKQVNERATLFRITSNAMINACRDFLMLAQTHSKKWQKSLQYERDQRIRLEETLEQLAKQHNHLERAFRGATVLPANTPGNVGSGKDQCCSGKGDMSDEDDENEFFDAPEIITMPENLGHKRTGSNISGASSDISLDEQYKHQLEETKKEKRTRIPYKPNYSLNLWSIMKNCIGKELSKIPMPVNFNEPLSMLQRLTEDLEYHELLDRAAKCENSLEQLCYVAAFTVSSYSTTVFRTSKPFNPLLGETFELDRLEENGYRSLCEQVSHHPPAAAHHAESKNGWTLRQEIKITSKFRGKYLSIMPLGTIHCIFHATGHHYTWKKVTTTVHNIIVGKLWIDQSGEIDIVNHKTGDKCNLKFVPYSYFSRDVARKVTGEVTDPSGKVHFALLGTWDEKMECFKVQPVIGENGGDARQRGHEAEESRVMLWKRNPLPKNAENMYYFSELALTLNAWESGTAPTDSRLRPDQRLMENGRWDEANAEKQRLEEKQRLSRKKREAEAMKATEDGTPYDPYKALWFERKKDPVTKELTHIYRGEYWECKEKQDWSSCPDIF
From the text: [^3H]-25-Hydroxycholesterol charcoal-dextran binding assay.
Methods are described above in the General Methods section.

[3] = target: T2, ORP4L-myc-his (Homo sapiens, UniProt Q969R2); experiment: [3H]-25-hydroxycholesterol charcoal-dextran binding assay with ORP4L-myc-his; details: read-out: [^3H]-25-OHC K1 (nM) ORP4L-myc-his; competition with 20 nM [3H]-25-OHC, HEK-293T S100 lysate, 4° C., 16 h
T2 sequence (Q969R2 1-916): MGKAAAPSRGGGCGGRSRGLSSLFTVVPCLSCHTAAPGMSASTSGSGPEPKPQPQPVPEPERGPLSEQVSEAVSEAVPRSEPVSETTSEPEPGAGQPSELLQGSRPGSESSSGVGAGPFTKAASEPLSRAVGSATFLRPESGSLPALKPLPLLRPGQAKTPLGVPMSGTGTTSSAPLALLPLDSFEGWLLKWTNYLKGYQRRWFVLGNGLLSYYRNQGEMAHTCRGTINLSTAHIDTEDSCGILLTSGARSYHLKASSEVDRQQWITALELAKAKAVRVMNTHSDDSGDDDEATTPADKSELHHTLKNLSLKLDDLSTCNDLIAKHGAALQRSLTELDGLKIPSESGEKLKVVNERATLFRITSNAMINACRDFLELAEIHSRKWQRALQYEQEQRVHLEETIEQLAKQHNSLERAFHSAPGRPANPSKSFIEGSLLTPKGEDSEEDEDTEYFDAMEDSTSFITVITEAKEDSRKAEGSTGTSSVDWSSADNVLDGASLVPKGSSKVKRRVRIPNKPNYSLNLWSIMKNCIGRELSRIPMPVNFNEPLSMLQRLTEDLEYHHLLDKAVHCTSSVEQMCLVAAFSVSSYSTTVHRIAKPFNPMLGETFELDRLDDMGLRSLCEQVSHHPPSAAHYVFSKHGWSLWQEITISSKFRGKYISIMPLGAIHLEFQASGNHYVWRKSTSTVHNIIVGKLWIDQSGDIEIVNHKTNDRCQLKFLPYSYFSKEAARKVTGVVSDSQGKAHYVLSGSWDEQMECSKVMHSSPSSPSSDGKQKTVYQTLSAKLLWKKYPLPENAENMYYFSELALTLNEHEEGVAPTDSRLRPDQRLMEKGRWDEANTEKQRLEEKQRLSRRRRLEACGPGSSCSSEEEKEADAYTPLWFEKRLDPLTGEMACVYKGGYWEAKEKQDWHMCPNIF
Description: [^3H]-25-Hydroxycholesterol charcoal-dextran binding assay. […] These vectors were transfected into HEK-293T cells using Lipofectamine™2000 (Invitrogen), and 48 h after transfection, on-plate lysis of the transfected cells with the M-Per®/HALT™ with EDTA (ThermoScientific) reagent was performed, followed by ultracentrifugation at 100,000 g. The S100 lysate was diluted to 0.2 mg/mL, aliquoted and stored at −80° C. until use. The HEK-293T OSBP1-, ORP4L- or lacZ-myc-his lysate was incubated with [^3H]-25-hydroxycholesterol at 4° C. for 16 h in 96-well plates. After incubation, charcoal/dextran (C/D) was added to the wells for 30 min of shaking at RT, followed by centrifugation for 15 min at 1900 g to pellet the C/D. The C/D-cleared lysate was added to MicroScint™-20 (PerkinElmer) scintillation fluid, and the remaining protein-bound radiolabel was quantified using a TopCount™ scintillation counter. [^3H]-25-hydroxycholesterol binding curves and competition curves were repeated at least three times.
Lysates were thawed on ice, with brief periods of hand warming. Both the ^3H-25-OHC direct binding assays and the ^3H-25-OHC competition binding assays were set up similarly, with a large stock of binding assay lysate being prepared, then 73.5 μL of the binding assay mixture dispensed using a multi-channel pipettor into “V”-shaped 96-well plates. For the ^3H-25-OHC direct binding assay, 1.5 μL of ^3H-25-OHC and ^3H-25-OHC/40×25-OHC added to the wells in dilutions in 100% ethanol. For the ^3H-25-OHC competition binding assays, ^3H-25-OHC was added to the large stock of binding assay lysate to a final concentration of 20 nM. This ^3H-25-OHC-containing binding lysate was then dispensed using a multi-channel pipettor into the 96-well plates. Then, 1.5 μL of a serial dilution of the inhibitors in either 100% ethanol (25-OHC) or DMSO (the ORPphilins) was added to each well.
The binding lysate used in each well of the 96-well plate consisted of 60 μL of 0.2 mg/mL S100 lysate, 7.5 μL 20% PVA, and 5.6 μL 2M KCl. For ^3H-25-OHC binding curve experiments, 0.4 μL of buffer was then added (total volume per well: 73.5 μL). For the ^3H-25-OHC inhibition competition assays, 0.11 μL of 13.2 μM ^3H-25-OHC and 0.29 μL binding buffer was added for each well (total volume per well: 73.5 μL).
Binding assays were incubated, standing, for 16 h at 4° C. Then 30 μL of the rt C/D solution was multichannel pipetted into new “V’ shaped 96-well plates, and 60 μL of the binding lysate mixture was then added. The plates were briefly, lightly vortexed (˜10 sec), 10 and then rocked at 250 rpm for 30 min at rt. The plates were then centrifuged at 1900 g for 15 min at 4° C. in Microplate Carriers (Sorvall cat. #75006449S) in a Sorvall Legend RT centrifuge. Carefully so as to not disturb the C/D pellet, 30 μL of the supernatant was transferred to 170 μL of Microscint-20 in the OptiPlates. The plates were sealed with the TopSealA-Films, and vigorously vortexed (max speed, >1 min). ^3H-25-OHC detection in the wells was then performed using a TopCount Scintillation detector, counting each well for 2 min. Data was graphed and analyzed using GraphPad PrismS, using non-linear regression to determine KD and K1 values.
Binding experiments were performed at 4° C. for 16 h. Unbound sterol was removed using dextran-coated charcoal, and protein-bound sterol left in the supernatant was quantified by scintillation counting. Ki-values were determined as mean±s.d. from at least three independent experiments.

[4] = tested on: CHO-K1 cells; experiment: Sphingomyelin biosynthesis, [3H]-serine pulse-labeling, CHO-K1; type: cell-based
Description: Sphingomyelin is biosynthesized from ceramide at the Golgi apparatus. Ceramide is primarily transported from the ER to the Golgi by ceramide transport protein (CERT), and the transport activity of CERT is both OSBP1- and VAP-A dependent. […] To determine whether the ORPphilins affect sphingomyelin synthesis, pulse-labeling with [^3H]-serine was performed in CHO-K1 and HCT-116 cells and the amount of tritium incorporated into sphingomyelin and other lipids then measured. Cells were treated with vehicle or compound for 6 h, and in the last 2 h the cells were pulsed with 10 μCi [^3H]-serine. Lipids were extracted and isolated by TLC, and label incorporation into sphingomyelin was measured by scintillation counting.

[5] = tested on: HCT-116 p21^−/− cells with OSBP1-targeting shRNA; experiment: OSBP1 shRNA knockdown/dose-shift experiment; type: cell-based, human; details: shOSBP1 vs shNT, 72 h
From the text: FIG. 3A is a series of four bar graphs depicting knockdown/dose-shift experiment in HCT-116 p21^−/− cells stably transfected with either OSBP1-targeting shRNA (shOSBP1) or non-targeting shRNA (shNT). Bars represent s.d. of three or four individual experiments. * P=0.0002 (n=3); ** P=0.0006 (n=4); *** P=0.0003 (n=3) compared to shNT cells (two-tailed students t-test).
To ascertain if the antiproliferative activity of the ORPphilins depended on the levels of OSBP1 and ORP4L in cells, short hairpin RNA (shRNA) knockdown of OSBP1 expression was performed and then its effect on the growth inhibitory activity of 1, 2, and 4a measured. […] Similar results were obtained in HeLa cells. Overexpression of OSBP1-myc-his or ORP4L-myc-his (FIG. 3C) for 48 h desensitized HeLa cells to the antiproliferative activity of 1, 2, or 4a by ˜2-5-fold (FIG. 3D). However, taxol-induced growth inhibition was not affected by overexpression of OSBP1-myc-his or ORP4L-myc-his (FIG. 3D).

[6] = tested on: HeLa cells overexpressing OSBP1(M446W)-myc-his; experiment: Overexpression-viability assay, OSBP1(M446W)-myc-his; type: cell-based; details: 48 h
Description: (§2) Overexpression-viability assays with wild-type and mutant OSBP/ORP4L constructs were carried out by transfecting HeLa cells with the appropriate plasmids using Lipofectamine™ LTX with PLUS™ reagent (Invitrogen) as instructed, and after 8 h of transfection, the cells were re-plated for the cell viability assay, performed as described above. Expression levels were evaluated by immunoblotting at the time of dosing.
(§3) For additional support that OSBP1 and ORP4L are targets of the ORPphilins, dominant drug-resistant alleles of these proteins were sought. 15 OSBP1 residues inside and outside the region of the protein previously reported to mediate sterol binding were mutated (FIG. 4C). The growth inhibition induced by the ORPphilins was determined in HeLa cells overexpressing either wild-type or mutant OSBP1-myc-his proteins. Expression of wt OSBP1-myc-his and mutant OSBP1-myc-his were nearly equivalent as measured by western blot.
(§4) The same mutant caused a 3.9-fold reduction in the antiproliferative activity of OSW-1 (2) (FIG. 4E2) and a 2.7-fold reduction in the activity of schweinfurthin A (4a) (FIG. 4E3). […] The antiproliferative activity of taxol was unaffected by expression of these two OSBP1 mutant proteins (FIGS. 4E4, 4E8).

[7] = tested on: HeLa cells overexpressing OSBP1(V582M); experiment: Overexpression-viability assay, OSBP1(V582M)-myc-his; type: cell-based; details: 48 h
Description: as §2, §3, §4

[8] = tested on: HCT-116 cells; experiment: Growth inhibition with 25-OHC co-administration; type: cell-based, human; details: 10 μM 25-OHC for 1 and 2
Description: 25-OHC (11) is a high-affinity ligand of OSBP1 and ORP4L that is not cytotoxic at concentrations up to 10 μM. Example 1 established that the ORPphilins compete with 25-OHC for binding to OSBP1 and ORP4L (FIG. 2D,E). Therefore, if OSBP1 and ORP4L mediate the biological activities of these compounds, co-administration of sub-lethal doses of 25-OHC with the ORPphilins should inhibit binding of the ORPphilins to OSBP1 and ORP4L, thereby desensitizing cells to the cytotoxic effects of the ORPphilins.

[9] = tested on: HeLa cells overexpressing OSBP1-myc-his or ORP4L-myc-his; experiment: Overexpression-viability assay, OSBP1-myc-his or ORP4L-myc-his; type: cell-based; details: 48 h, vs lacZ
Description: as §2

[10] = tested on: HCT-116 p21^−/−; details: cited from earlier work
[11] = tested on: HCT-116 p21^+/+; details: cited from earlier work
[12] = tested on: OSBP1 localization in A549 cells; experiment: OSBP1 localization by immunofluorescence microscopy, A549; type: cell-based, human
Description: as §1
Perturbations of OSBP1 localization by 1, 2, and 4b in A549 cells were also observed.

Compound: ritterazine B
- OSBP1 localization [1]: effect was also observed
- Ki [2]: 28 ± 4 nM
- Ki [3]: > 360 nM

Compound: C/C=C(/C)C(=O)O[C@H]1C(C)=C2[C@H]([C@@H]1OC(=O)CCCCCCC)[C@@](C)(OC(C)=O)C[C@H](OC(=O)CCC)[C@@]1(O)[C@H]2OC(=O)[C@@]1(C)O [thapsigargin]
- inhibition of SM biosynthesis (negative controls) [4]: did not occur

Compound: CC(=O)O[C@H]1C(=O)[C@@]2(C)[C@H]([C@H](OC(=O)c3ccccc3)[C@]3(O)C[C@H](OC(=O)[C@H](O)[C@@H](NC(=O)c4ccccc4)c4ccccc4)C(C)=C1C3(C)C)[C@]1(OC(C)=O)CO[C@@H]1C[C@@H]2O [taxol]
- sensitization by OSBP1 knockdown (GI50 shift) [5]: did not sensitize
- reduction in antiproliferative activity at the GI50 level, OSBP1(M446W) vs wt OSBP1 [6]: unaffected
- reduction in antiproliferative activity, OSBP1(V582M) vs wt OSBP1 [7]: unaffected
- effect of 25-OHC co-administration on the antiproliferative activity [8]: did not affect
- inhibition of SM biosynthesis (negative controls) [4]: did not occur
- desensitization by overexpression of OSBP1-myc-his or ORP4L-myc-his [9]: not affected

Compound: CC(/C=C/C=C(C)/C=C/C=C(\C)C(=O)O)=C1/C(=O)C[C@H]2[C@@]3(C)CCC(=O)C(C)(C)[C@@H]3CC[C@]12C [(−)-stellettin E, (−)-Stellettin E]
- GI50 [10]: 39 nM
- times more cytotoxic to HCT-116 p21−/− than to parental HCT-116 [10]: 117 times
- GI50 [11]: 4.57 µM

Compound: COc1cc(/C=C/c2cc(O)c(C/C=C(\C)CCC=C(C)C)c(O)c2)cc2c1O[C@]1(C)C[C@@H](O)[C@@H](O)C(C)(C)[C@H]1C2 [Schweinfurthin B, schweinfurthin B]
- OSBP1 localization [12]: perinuclear OSBP1-staining similar to 25-OHC
